The target of assay [1] is T1, AtGH3.6 (Arabidopsis thaliana, UniProt Q9LSQ4).
T1 construct: gene GH3.6
T1 sequence (Q9LSQ4 1-612): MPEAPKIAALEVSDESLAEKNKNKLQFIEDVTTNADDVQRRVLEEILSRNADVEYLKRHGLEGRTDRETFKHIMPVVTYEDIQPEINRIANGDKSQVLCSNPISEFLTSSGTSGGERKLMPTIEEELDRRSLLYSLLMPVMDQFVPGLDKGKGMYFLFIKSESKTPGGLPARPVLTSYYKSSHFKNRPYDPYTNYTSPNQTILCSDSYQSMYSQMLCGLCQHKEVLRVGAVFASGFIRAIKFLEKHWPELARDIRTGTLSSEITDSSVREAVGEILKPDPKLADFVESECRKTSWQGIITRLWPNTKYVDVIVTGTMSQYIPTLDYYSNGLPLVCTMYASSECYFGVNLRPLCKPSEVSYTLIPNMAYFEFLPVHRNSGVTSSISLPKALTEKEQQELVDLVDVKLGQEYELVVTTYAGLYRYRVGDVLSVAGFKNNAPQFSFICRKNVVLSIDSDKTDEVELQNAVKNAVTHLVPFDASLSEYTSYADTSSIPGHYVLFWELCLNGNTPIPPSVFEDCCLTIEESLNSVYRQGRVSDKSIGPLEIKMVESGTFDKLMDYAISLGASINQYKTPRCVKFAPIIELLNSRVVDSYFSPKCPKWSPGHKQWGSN
Kind of assay: crystal structure with AMP and Asp; MST. It is filed as binding.

In assay [2] the target is T1, AtGH3.6. The assay is described as follows: MST. It is filed as binding.
Another assay concerns the target T2, UGT84B1 (Arabidopsis thaliana, UniProt O22182).
T2 construct: recombinant AtUGT84B1 in E. coli lysate
T2 sequence (O22182 1-456): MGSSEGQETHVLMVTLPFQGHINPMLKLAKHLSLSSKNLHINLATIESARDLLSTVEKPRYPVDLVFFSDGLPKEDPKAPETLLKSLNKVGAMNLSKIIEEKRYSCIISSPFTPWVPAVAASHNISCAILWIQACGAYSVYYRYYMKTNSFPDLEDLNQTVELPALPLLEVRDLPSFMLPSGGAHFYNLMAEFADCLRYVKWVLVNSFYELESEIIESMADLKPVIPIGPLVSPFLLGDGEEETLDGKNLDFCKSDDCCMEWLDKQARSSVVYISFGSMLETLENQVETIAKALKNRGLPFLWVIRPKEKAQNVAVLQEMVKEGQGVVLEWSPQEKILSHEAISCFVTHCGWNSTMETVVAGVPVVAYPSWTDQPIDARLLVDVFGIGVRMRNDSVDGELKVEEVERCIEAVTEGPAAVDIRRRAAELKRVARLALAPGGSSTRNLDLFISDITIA
The assay is described as follows: bacterial lysate glucosylation assay, HPLC-MS/MS. It is filed as cell-based.

The next assay addresses T3, UGT74D1 (Arabidopsis thaliana, UniProt Q9SKC5).
T3 construct: recombinant AtUGT74D1 in E. coli lysate
T3 sequence (Q9SKC5 1-456): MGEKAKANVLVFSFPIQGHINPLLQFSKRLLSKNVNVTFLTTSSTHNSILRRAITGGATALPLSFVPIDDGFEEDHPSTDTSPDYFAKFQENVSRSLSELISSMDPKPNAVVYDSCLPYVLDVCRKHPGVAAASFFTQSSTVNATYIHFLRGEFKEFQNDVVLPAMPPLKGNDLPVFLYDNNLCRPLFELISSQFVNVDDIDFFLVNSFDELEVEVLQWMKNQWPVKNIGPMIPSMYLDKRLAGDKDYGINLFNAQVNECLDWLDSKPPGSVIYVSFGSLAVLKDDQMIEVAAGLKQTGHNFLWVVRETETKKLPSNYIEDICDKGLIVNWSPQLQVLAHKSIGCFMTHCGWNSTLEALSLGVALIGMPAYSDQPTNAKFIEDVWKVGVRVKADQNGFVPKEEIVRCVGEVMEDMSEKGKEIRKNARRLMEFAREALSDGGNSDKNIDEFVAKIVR
The assay is described as follows: bacterial lysate glucosylation assay, HPLC-MS/MS. The format is cell-based.

The target in assay [3] is T1, AtGH3.6. The assay is described as follows: MST; also conjugated by AtGH3.[…] in bacterial lysate assay. It is filed as binding.

As usually defined, the Kd is the free concentration of one partner at which half of the binding sites on the other are occupied at equilibrium, for simple one-to-one binding. At AtGH3.6 [1], `N[C@@H](CC(=O)O)C(=O)O` [Asp, aspartate] displayed a Kd of 680 µM.

`N[C@@H](CCC(=O)O)C(=O)O` [Glu] returned a Kd at AtGH3.6 [2] of 720 µM.

On to `O=C(O)Cc1c[nH]c2ccccc12` [IAA, indole-3-acetic acid], for which the “bacterial lysate glucosylation assay, HPLC-MS/MS” value at UGT84B1 is “Both UGT84B1 and UGT74D1 recombinant proteins showed the capability to produce IAA-glc and PAA-glc”; at UGT74D1, “Both UGT84B1 and UGT74D1 recombinant proteins showed the capability to produce IAA-glc and PAA-glc”. Moreover, on AtGH3.6 [2] (read-out: Kd), the Kd is approximately 60 µM. For the molecule `O=C(O)Cc1ccccc1` [PAA, phenylacetic acid], the Kd at AtGH3.6 [3] is approximately 60 µM.

The values are drawn from publication PMC12369477 (Journal of Experimental Botany, 2025).
